# Experiments:
# human Factor Xa [1] = molecular target: T1, human Factor Xa (Homo sapiens, UniProt P00742); experiment: In vitro assay for inhibition of Factor Xa (1), chromogenic assay; format: biochemical; conditions: substrate N-α-benzyloxycarbonyl-D-Arg-Gly-Arg-p-nitroanilide 200 μM, Ki calculated from IC50
# Protocol: • 1. Klimkowski, Valentine Joseph; Kyle, Jeffrey Alan; Masters, John Joseph; Wiley, Michael Robert. PCT Int. Appl. (2000), WO 0039092. In Vitro Assay for Inhibition of Factor Xa (1)
# Compounds were diluted from a 10 mM stock solution in dimethylsulfoxide at appropriate concentrations. Assay was performed at room temperature using buffer consisting of: 50 mM Tris-HCl, 150 mM NaCl, 5 mM CaCl2, pH 7.4. containing human Factor Xa (final conc. of 0.0015 U,ml^−1). Compound and enzyme were preincubated for 15 min prior to addition of the substrate (final conc. of 200 μM). The reaction was stopped after 30 min with the addition of soybean trypsin inhibitor or H-D-PHE-PRO-ARG-Chloromethylketone. BioTek EL340 or Tecan Spectrafluoro Plus plate readers were used to monitor the absorbance at 405 nm. To obtain IC50 values the data were analysed using ActivityBase® and XLfit®.
# Calculation of Ki values:
# Ki=IC50/(1+[Substrate]/Km)
# The Ki value for the above assay can be obtained by dividing the IC50 value by 1.6.
# human Factor Xa [2] = molecular target: T1, human Factor Xa; experiment: In vitro assay for inhibition of Factor Xa (2), fluorogenic assay; format: biochemical; conditions: substrate Rhodamine 110, bis-(CBZ-glycylglycyl-L-arginine amide 10 μM), Ki calculated from IC50
# In short: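 Enzyme (final 0.0003 U/mL) preincubated 15 min with compound at room temperature in 50 mM Tris-HCl, 150 mM NaCl, 5 mM CaCl2, pH 7.4, then rhodamine 110 bis-(CBZ-Gly-Gly-Arg amide) substrate added (final 10 μM).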
# T1 sequence (P00742 235-488 limits assumed): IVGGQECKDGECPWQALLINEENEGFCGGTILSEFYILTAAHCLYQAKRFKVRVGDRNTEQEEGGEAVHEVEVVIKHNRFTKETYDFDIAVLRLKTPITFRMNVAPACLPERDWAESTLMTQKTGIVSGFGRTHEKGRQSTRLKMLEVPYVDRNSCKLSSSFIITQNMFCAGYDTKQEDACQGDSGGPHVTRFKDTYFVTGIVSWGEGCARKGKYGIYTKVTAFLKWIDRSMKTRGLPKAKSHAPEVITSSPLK
# T1 sequence (P00742 41-179 partner limits assumed): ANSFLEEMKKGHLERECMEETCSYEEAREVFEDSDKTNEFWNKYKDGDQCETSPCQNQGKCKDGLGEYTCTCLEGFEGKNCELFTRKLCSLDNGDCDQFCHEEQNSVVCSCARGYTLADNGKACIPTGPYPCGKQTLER
Ki (human Factor Xa [1]),Ki (human Factor Xa [2]),SMILES
< 20 nM,–,"CS(=O)(=O)Nc1ccccc1-c1ccc(N2CC[C@H](NS(=O)(=O)/C=C/c3ccc(Cl)s3)C2=O)nc1 [Example 21, (E)-2-(5-Chlorothien-2-yl)-N-[(3S)-1-(5-{2-[(methylsulfonyl)amino]phenyl}pyridin-2-yl)-2-oxopyrrolidin-3-yl]ethenesulfonamide]"
< 1000 nM,–,"CS(=O)(=O)c1ccccc1-c1ccc(N2CC[C@H](NS(=O)(=O)c3cc4cc(Cl)ccc4o3)C2=O)nc1 [Example 23, 5-Chloro-N-((3S)-1-{5-[2-(methylsulfonyl)phenyl]pyridin-2-yl}-2-oxopyrrolidin-3-yl)-1-benzofuran-2-sulfonamide]"
< 200 nM,–,"CC(C)(C)c1ccc(N2CC[C@H](NS(=O)(=O)c3ccc4cc(Cl)ccc4c3)C2=O)cc1 [Example 125, N-[(3S)-1-(4-tert-butylphenyl)-2-oxopyrrolidinyl]-6-chloro-2-naphthalenesulfonamide]"
< 1000 nM,–,"O=C1[C@@H](NS(=O)(=O)/C=C/c2ccc(Cl)s2)CCN1c1ccc(I)cn1 [Example 90, (E)-2-(5-Chlorothien-2-yl)-N-[(3S)-1-(5-iodopyridin-2yl)oxopyrrolidin-3-yl]ethenesulfonamide]"
< 10 nM,–,"Cn1cncc1-c1ccc(N2CC[C@H](NS(=O)(=O)c3ccc4cc(Cl)ccc4c3)C2=O)c(F)c1 [Example 85, 6-Chloro-N-{(3S)-1-[2-fluoro-4-(1-methyl-1H-imidazol-5-yl)phenyl]-2-oxopyrrolidin-3-yl}naphthalene-2-sulfonamide]"
< 1000 nM,–,"Cc1ccc(-c2ccc(N3CC[C@H](NS(=O)(=O)c4ccc5cc(Cl)ccc5c4)C3=O)c(F)c2)o1 [Example 73, 6-Chloro-N-{(3S)-1-[2-fluoro-4-(5-methyl-2-furyl)phenyl]-2-oxopyrrolidin-3-yl}naphthalene-2-sulfonamide]"
< 20 nM,–,"CN(C)c1ccc(N2CC[C@H](NS(=O)(=O)c3ccc4cc(Cl)ccc4c3)C2=O)cc1 [Example 2, 6-Chloro-N-{(3S)-1-[4-(dimethylamino)phenyl]-2-oxopyrrolidin-3-yl}naphthalene-2-sulfonamide]"
< 200 nM,–,"O=C1[C@@H](NS(=O)(=O)c2ccc3cc(Cl)ccc3c2)CCN1c1ccc(I)cc1F [Example 89, 6-Chloro-N-[(3S)-1-(2-fluoro-4-iodophenyl)-2-oxopyrrolidin-3-yl]naphthalene-2-sulfonamide]"
–,< 10 nM,"COc1ccncc1-c1ccc(N2CC[C@H](NS(=O)(=O)c3ccc4cc(Cl)ccc4c3)C2=O)c(F)c1 [Example 62, 6-Chloro-N-{(3S)-1-[2-fluoro-4-(4-methoxypyridin-3-yl)phenyl]-2-oxopyrrolidin-3-yl}naphthalene-2-sulfonamide]"
–,< 200 nM,"CC(C)Oc1ccccc1-c1ccc(N2CC[C@H](NS(=O)(=O)/C=C/c3ccc(Cl)s3)C2=O)nc1 [Example 31, (E)-2-(5-Chlorothien-2-yl)-N-{(3S)-1-[5-(2-isopropoxyphenyl)pyridin-2-yl]-2-oxopyrrolidin-3-yl}ethenesulfonamide]"
–,< 10 nM,"O=C1[C@@H](NS(=O)(=O)/C=C/c2ccc(Cl)s2)CCN1c1ccc(-c2ccncc2Cl)cc1F [Example 80, (E)-N-{(3S)-1-[4-(3-Chloropyridin-4-yl)-2-fluorophenyl]-2-oxopyrrolidin-3-yl}-2-(5-chlorothien-2-yl)ethenesulfonamide]"
< 10 nM,–,"CNS(=O)(=O)c1ccccc1-c1ccc(N2CC[C@H](NS(=O)(=O)/C=C/c3ccc(Cl)s3)C2=O)c(F)c1 [Example 19, 4′-[(3S)-3-({[(E)-2-(5-Chlorothien-2-yl)ethenyl]sulfonyl}amino)-2-oxopyrrolidin-1-yl]-3′-fluoro-N-methyl-1,1′-biphenyl-2-sulfonamide]"
–,< 10 nM,"O=C1[C@@H](NS(=O)(=O)c2ccc3cc(Cl)ccc3c2)CCN1c1ccc(-c2cccnc2)cc1F [Example 57, 6-Chloro-N-[(3S)-1-(2-fluoro-4-pyridin-3ylphenyl)-2-oxopyrrolidin-3-yl]naphthalene-2-sulfonamide]"
–,< 10 nM,"NC(=O)c1cccc(-c2ccc(N3CC[C@H](NS(=O)(=O)c4ccc5cc(Cl)ccc5c4)C3=O)c(F)c2)c1 [Example 50, 4′-[(S)-3-(6-Chloro-naphthalene-2-sulphonylamino)-2-oxo-pyrrolidin-1-yl]-3′-fluoro-biphenyl-3-carboxylic Acid Amide]"
–,< 10 nM,C/C(=C\S(=O)(=O)N[C@H]1CCN(c2ccc(I)cn2)C1=O)c1ccc(Cl)s1 [Example 136]
< 10 nM,–,"O=C1[C@@H](NS(=O)(=O)c2ccc3cc(Cl)ccc3c2)CCN1c1ccc(-c2ccncc2Cl)cc1F [Example 83, 6-chloro-N-{(3S)-1-[4-(3-Chloropyridin-4-yl)-2-fluorophenyl]-2-oxopyrrolidin-3-yl}naphthalene-2-sulfonamide]"
–,< 10 nM,"CS(=O)(=O)c1ccccc1-c1ccc(N2CC[C@H](NS(=O)(=O)c3cc4cc(Cl)ccc4o3)C2=O)c(F)c1 [Example 5, 5-Chloro-N-{(3S)-1-[3-fluoro-2′-(methylsulfonyl)-1,1′-biphenyl-4-yl]-2-oxopyrrolidin-3-yl}-1-benzofuran-2-sulfonamide]"
–,< 10 nM,"Cn1ccnc1-c1ccc(N2CC[C@H](NS(=O)(=O)c3ccc4cc(Cl)ccc4c3)C2=O)c(F)c1 [Example 77, 6-Chloro-N-{(3S)-1-[2-fluoro-4-(1-methyl-1H-imidazol-2-yl)phenyl]-2-oxopyrrolidin-3-yl}naphthalene-2-sulfonamide]"
–,< 10 nM,"CS(=O)(=O)c1ccccc1-c1ccc(N2CC[C@H](N(CC(=O)O)S(=O)(=O)/C=C/c3ccc(Cl)s3)C2=O)nc1 [Example 48, {[(E)-2-(5-Chlorothien-2-yl)(ethenyl]sulfonyl}((3S)-1-{5-[2-(methylsulfonyl)phenyl]pyridin-2-yl}-2-oxopyrrolidin-3-yl)amino]acetic Acid]"
–,< 10 nM,"CS(=O)(=O)c1ccccc1-c1ccc(N2CC[C@H](NS(=O)(=O)c3cc4ccc(Cl)cc4o3)C2=O)c(F)c1 [Example 36, 6-Chloro-N-{(3S)-1-[3-fluoro-2′-(methylsulfonyl)-1,1′-biphenyl-4yl]-2-oxopyrrolidin-3-yl}-1-benzofuran-2-sulfonamide]"
–,< 20 nM,"CC(C)N(C=O)c1ccc(N2CC[C@H](NS(=O)(=O)c3cc4ccc(Cl)cc4s3)C2=O)c(F)c1 [Example 121, 6-Chloro-N-((3S)-1-{2-fluoro-4-[formyl(isopropyl)amino]phenyl}-2-oxopyrrolidin-3-yl)-1-benzothiophene-2-sulfonamide]"
–,< 10 nM,"CNS(=O)(=O)c1ccccc1-c1ccc(N2CC[C@H](NS(=O)(=O)/C=C/c3ccc(Cl)s3)C2=O)nc1 [Example 29, 2-{6-[(3S)-3-({[(E)-2-(5-Chlorothien-2-yl)ethenyl]sulfonyl}amino)-2-oxopyrrolidin-1-yl]pyridin-3-yl}-N-methylbenzenesulfonamide]"
–,< 200 nM,"CC(=O)c1ccc(N2CC[C@H](NS(=O)(=O)/C=C/c3ccc(Cl)s3)C2=O)nc1 [Example 113, (E)-N-[(3S)-1-(5-Acetylpyridin-2-yl)-2-oxopyrrolidin-3yl]-2-(5-chlorothien-2-yl)ethenesulfonamide]"
